According to PubChem BioAssay (NCI):
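Test compounds were applied to cells in 96-well plates for 48 hours at 5 doses. At the TGI there is no net growth.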

What was measured:
Test in all cases: inhibition of tumour cell growth, NCI panel, 48 h
[1] = test system: CAKI-1 renal
[2] = test system: COLO 205 colon
[3] = test system: EKVX NSCLC
[4] = test system: HCC-2998 colon
[5] = test system: HOP-62 NSCLC
[6] = test system: IGROV1 ovarian
[7] = test system: K-562 leukemia
[8] = test system: MCF7 breast
[9] = test system: NCI-H460 lung
[10] = test system: NCI-H522 lung
[11] = test system: OVCAR-3 ovarian
[12] = test system: OVCAR-4 ovarian
[13] = test system: OVCAR-5 ovarian
[14] = test system: OVCAR-8 ovarian
[15] = test system: SF-295 CNS
[16] = test system: SK-MEL-2 melanoma
[17] = test system: SK-MEL-28 melanoma
[18] = test system: SK-MEL-5 melanoma
[19] = test system: UACC-257 melanoma
[20] = test system: UACC-62 melanoma

SMILES | TGI [1] [µM] | TGI [2] [µM] | TGI [3] [µM] | TGI [4] [µM] | TGI [5] [µM] | TGI [6] [µM] | TGI [7] [µM] | TGI [8] [µM] | TGI [9] [µM] | TGI [10] [µM] | TGI [11] [µM] | TGI [12] [µM] | TGI [13] [µM] | TGI [14] [µM] | TGI [15] [µM] | TGI [16] [µM] | TGI [17] [µM] | TGI [18] [µM] | TGI [19] [µM] | TGI [20] [µM]
COc1cc(-c2coc3c(OC)c(OC4OC(COC5OC(C)C(O)C(O)C5O)C(O)C(O)C4O)c(OC)c(O)c3c2=O)cc(C)c1O (stereo not given) | 38.9 | 34.9 | 38 | 39.2 | 81.9 | 53.1 | 34.6 | 47.4 | 82.6 | 34.7 | 47.2 | 69.5 | 45.5 | > 100 | 38 | 59.9 | 34.4 | 26.5 | 68.2 | 34.7
CC(=O)OC1C(O)C(C)OC(OC(=O)C2CCC3C(C2)OC2(CC(OC(=O)/C=C/c4ccccc4)C(C)CO2)C32CO2)C1OC1OC(C)C(O)C(O)C1O (stereo not given) | 9.74 | 0.0569 | 0.246 | 0.0881 | 0.223 | 0.131 | 2.29 | 0.0917 | 0.236 | 0.0487 | 0.0917 | 0.0706 | 1.24 | 0.823 | 0.542 | 0.0389 | 0.0685 | 0.0897 | 0.0726 | 0.114
